Laboratory results reported in US20150126368A1, “METHOD OF PROVIDING PLANT WITH STRESS RESISTANCE” (Nippon Soda Co., Ltd., priority 2012, published 2015).

What was measured:
Assay type in all cases: in vivo
[1] = test system: Cucumber (breed: Sagamihanjirohushinari); assay: Evaluation test for relief effects of salt injury on cucumber; details: 0.1% aqueous sodium chloride from 2 days, raw weight 11 days after spray
Protocol: Cucumber (breed: Sagamihanjirohushinari, 2 reprications) hydroponically grown up to the two leaf stage in a greenhouse was prepared.
(§1) A water dispersible granule of 30% ascorbic acid palmitate and pyraclostrobin adjusted to 40% with N,N-dimethylformamide were diluted with tap water to a predetermined concentration, and the diluted solution was sprayed over the whole nursery plants in a sufficient amount. After air dried, they were cultivated with normal irrigation in a greenhouse. Then, the irrigation conditions were changed to 0.1% aqueous sodium chloride solution in 2 cm depth from 2 days after the spraying, and cultivated up to 11 days after the spray treatment. Then the raw weights of an aerial part and a root part were each measured. From this, injury relief percentages were computed by the following formula.
(§2) Salt injury relief percentage=((raw weight of each treatment region)−(raw weight of untreated region))/(raw weight of untreated region)×100

[2] = test system: Eggplant (breed: Senryo 2 gou); assay: Evaluation test for relief effects of low temperature injury on eggplant; details: 13° C. daylight/8° C. dark, 15 days after spray
Protocol: Eggplant (breed: Senryo 2 gou, 3 reprications) grown up to the 4 to 6 leaf stage in a greenhouse was prepared.
A water dispersible granule of 30% ascorbyl palmitate and pyraclostrobin dissolved to 40% with N,N-dimethylformamide were diluted with tap water to a concentration described in Table 6, and the diluted solution was sprayed over the whole nursery plants in a sufficient amount. After air dried, they were allowed to grow for 1 day under conditions of 16 hours under a daylight condition at 18° C. and 8 hours under a dark condition at 13° C., and then allowed to grow under conditions of 16 hours under a daylight condition at 13° C. and 8 hours under a dark condition at 8° C. A degree of disorder was investigated at the elapsed time of 15 days after the spray treatment.
Disorders were evaluated by 4 levels of disorder indices of 0 (no color change), 1 (discolored up to ¼ of the whole), 2 (discolored up to ½ of the whole), 3 (discolored at ½ or more of the whole) with reference to the area of a discolored portion in an expanded leaf after treatment.
Injury relief percentage=((disorder index of untreated region)−(disorder index of each treated region))/(disorder index of untreated region)×100

[3] = test system: Cucumber (breed: Sagamihanjirohushinari); assay: Evaluation test for relief effects of acidity problem on cucumber; details: hydroponic medium pH 4 from 2 days, leaf stage 17 days after spray
Protocol: Cucumber (breed: Sagamihanjirohushinari, 2 reprications) hydroponically grown up to the two leaf stage in a 100 ml flask was prepared.
A water dispersible granule of 30% ascorbic acid palmitate and pyraclostrobin adjusted to 40% with N,N-dimethylformamide were diluted with tap water to a predetermined concentration, and the diluted solution was sprayed over the whole nursery plants in a sufficient amount. The water culture medium was adjusted to pH 4 with 1 N hydrochloric acid at the elapsed time of 2 days after the spray treatment, and the above cucumber was continuously allowed to grow hydroponically. Leaf stage of the cucumber was investigated 17 days after the spray treatment. From this, disorder relief percentages were computed by the following formula.
Acidity problem relief percentage=((leaf stage of each treatment region)−(leaf stage of untreated region))/(leaf stage of untreated region)×100

[4] = test system: Eustoma grandiflorum (breed: King of Snow); assay: Evaluation test for relief effects of high temperature injury on Eustoma grandiflorum; details: ascorbyl palmitate 600 ppm, sprayed 10 times; 2 weeks at 35° C. daylight/15° C. dark
Protocol: Eustoma grandiflorum (breed: King of Snow) grown at a temperature of 22° C. and 16 hours under dark condition in a cell tray in the room was prepared. When an appropriately half were sprouted after seeding, a water dispersible granule of 30% ascorbyl palmitate was diluted with distilled water to a predetermined concentration, and the diluted solution was sprayed on the whole nursery plants in a sufficient amount. Subsequently, spraying by the same method was performed two times a week for the total of 10 times including the first application. Meanwhile, they were transferred to under conditions of 16 hours under a daylight condition at 35° C. and 8 hours under a dark condition at 15° C. at the expansion stage of a pair of true leaves 3 weeks after seeding, and allowed to grow for 2 weeks. Further, they were transferred to in a glass greenhouse and allowed to grow. Then naturalization was performed upon the expansion stage of two pairs of true leaves 8 week after seeding, and continuously allowed to grow in the greenhouse. Subsequently, the number of those bloomed out of the bolting plants was investigated.

[5] = test system: Wheat (breed, Norin No. 61); assay: Test for green color maintenance effects (relief of high temperature injury) on wheat; details: appl. amount 1.5 g/m^2 at plant foot, 4 times at intervals of seven days, field
Text: Wheat (breed, Norin No. 61, 15 plants/m^2/region, 2 reprications) grown in the field was used. A water dispersible granule of 30% ascorbyl palmitate in an amount described in Table 11 was applied to the plant foot 4 times at intervals of seven days from the next day of the ear emergence day in August. The leaf color index of top 4 to 5 leaves of each plant in a treatment region was investigated on September 6 to evaluate maintenance effects of leaf color as compared with that in the untreated region.
Leaf color was evaluated by […] of leaf color indices of 1 (discolored at ¼ or less of the whole), 2 (discolored at ½ or less of the whole) and 3 (discolored at ¾ or more of the whole). From this, the mean leaf color index, and green color maintenance effects were computed by the following formula.
Green color maintenance effect=(leaf color index of untreated region)−(leaf color index of each treatment region))/(leaf color index of untreated region)×100

Soybean (breed: Enrei) = assay: Evaluation test for relief effects of salt injury on soybean; details: 0.1% aqueous sodium chloride from 2 days, raw weight 11 days after spray
Protocol: Soybean (breed: Enrei, 2 reprications) hydroponically grown up to the two leaf stage in a greenhouse was prepared.
as §1, §2

[6] = test system: Cherry tomato (breed; Regina); assay: Evaluation test for relief effects of high temperature injury on cherry tomato; details: 30% water dispersible granule at plant foot at intervals of seven days
Protocol: Cherry tomato (breed; Regina, 5 reprications) grown in a greenhouse was prepared.
On August 24 at the first inflorescence anthesis, 0.15% of 4-chlorophenoxyacetic acid was sprayed, and a water dispersible granule of 30% ascorbyl palmitate in an amount described in Table 4 was further applied at the plant foot at intervals of seven days. All fruits were harvested on September 28, and the color of a fruit (classified into red and green), the weight of a fruit, and the number of fruits were investigated to calculate the weight per fruit and the percentage of red fruits (%).

[7] = ascorbyl palmitate 1000 ppm spray

## CCCCCCCCCCCCCCCC(=O)OC[C@H](O)[C@H]1OC(=O)C(O)=C1O [ascorbyl palmitate]
[1]; [7]
  relief percents of salt injury in aerial part(%): 8.8%
  relief percents of salt injury in root(%): 16.0%
[2]; [7]
  relief percents of low-temperature injury(%): 13.0%
[3]; [7]
  relief percents of acidity problem(%): 15.6%
[4]
  Number of bloomed plants: 12
  Number of bolting plants: 16
  Percents of bloomed plants(%): 75.0%
[5]; index 1 to 3
  mean leaf color index: 1.5
[5]; vs untreated region
  Green color maintenance effect(%): 25.0%
Soybean (breed: Enrei); [7]
  relief percents of salt injury in aerial part(%): 20.4%
  relief percents of salt injury in root(%): 22.2%
[6]; dosage 0.1 g/stock
  color of fruit: Number of green fruits: 13
  color of fruit: Number of red fruits: 19
  color of fruit: Percents of red fruits vs. no treatment region(%): 141%
  color of fruit: Percents of red fruits(%): 59%
  yield: Total number of fruits: 32
  yield: Total weight of fruits: 304 g
  yield: weight per fruit vs. no treatment region(%): 138%
  yield: weight per fruit(g/fruit): 9.5 g/fruit
[6]; dosage 0.5 g/stock
  color of fruit: Number of green fruits: 4
  color of fruit: Number of red fruits: 29
  color of fruit: Percents of red fruits vs. no treatment region(%): 209%
  color of fruit: Percents of red fruits(%): 88%
  yield: Total number of fruits: 33
  yield: Total weight of fruits: 342 g
  yield: weight per fruit vs. no treatment region(%): 151%
  yield: weight per fruit(g/fruit): 10.4 g/fruit

## COC(=O)N(OC)c1ccccc1COc1ccn(-c2ccc(Cl)cc2)n1 [Pyraclostrobin, reference compound]
[1]; Pyraclostrobin 50 ppm spray
  relief percents of salt injury in aerial part(%): 45.6%
  relief percents of salt injury in root(%): 20.0%
[2]; Pyraclostrobin 50 ppm spray
  relief percents of low-temperature injury(%): 13.0%
[3]; Pyraclostrobin 50 ppm spray
  relief percents of acidity problem(%): 15.6%
Soybean (breed: Enrei); Pyraclostrobin 50 ppm spray
  relief percents of salt injury in aerial part(%): 3.2%
  relief percents of salt injury in root(%): 2.5%
